Laboratory results reported in patent US6489268B1, “Highly selective herbicidal phenoxypropionic acid alkoxycarbonyl anilid compounds and method of preparing the same” (Dongbu Hannong Chemical Co., Ltd., priority 1999, dated 2002).

Experiments:
Test in all cases: Leaf treatment test (post-emergence spray, % damage)
Type in all cases: in vivo
Settings in all cases: 14 days after treatment, vs untreated control
[1] = test system: Echinochloa crus-galli Beauv. var. caudata Kitagawa (Barnyard grass, ECHCG)
Protocol: (§1) Seeds of rice, wheat, barley, corn, cotton, barnyard grass, common sorgum, large crabgrass and fall panicum were seeded at a pot with a surface area of 600 cm. When barnyard grass kept at 20˜30° C. had three leaves, wettable powders prepared by mixing 1 weight part of the active compound, 5 weight part of acetone and 1 weight part of emulsifier and diluting with water was applied directly on the leaves in 2000 l per hectare. The concentration of the spray liquid was so chosen the particular amounts of the active compound desired. 14 days after the treatment, the degree of damage to the plants was rated in % damage in comparison to the development of untreated control. 0% no action (like untreated control) 20% slight effect 70% herbicidal effect 100% total destruction [table]

[2] = test system: Oryza sativa L. cv. Dongjin (Rice, ORYSA)
Protocol: as §1

[3] = test system: Andropogon sorghum (Common sorgum, SORBI)
Protocol: as §1

[4] = test system: Digitaria Sanguinalis (L.) SCOP (Large crabgrass, DIGSA)
Protocol: as §1

[5] = test system: Glydne max (L.) MERR (Soy bean, GLXMA)
Protocol: [The procedure below names another organism; the source lists this organism under the same test.] as §1

[6] = test system: Gossypium (Cotton, GOSHI)
Protocol: as §1

[7] = test system: Panicum dichotomiflorum Michx (Fall panicum, PANDI)
Protocol: as §1

[8] = test system: Triticum aestivum L. (Wheat, TRZAW)
Protocol: as §1

[9] = test system: Zea mays L. (Corn, ZEAMX)
Protocol: as §1

## COC(=O)c1cccc(NC(=O)C(C)Oc2ccc(Oc3nc4ccc(Cl)cc4o3)cc2)c1 (stereo not drawn) [Compound 1]
[1]; 15 g/ha
  degree of damage to the plants, ECHCG: 0%
[1]; 30 g/ha
  degree of damage to the plants, ECHCG: 80%
[1]; 60 g/ha
  degree of damage to the plants, ECHCG: 100%
[1]; 125 g/ha
  degree of damage to the plants, ECHCG: 100%
[1]; 250 g/ha
  degree of damage to the plants, ECHCG: 100%
[1]; 500 g/ha
  degree of damage to the plants, ECHCG: 100%
[1]; 1000 g/ha
  degree of damage to the plants, ECHCG: 100%
[2]; 15 g/ha
  degree of damage to the plants, ORYSA: 0%
[2]; 30 g/ha
  degree of damage to the plants, ORYSA: 0%
[2]; 60 g/ha
  degree of damage to the plants, ORYSA: 0%
[2]; 125 g/ha
  degree of damage to the plants, ORYSA: 0%
[2]; 250 g/ha
  degree of damage to the plants, ORYSA: 10%
[2]; 500 g/ha
  degree of damage to the plants, ORYSA: 20%
[2]; 1000 g/ha
  degree of damage to the plants, ORYSA: 30%

## CCOC(=O)c1cccc(NC(=O)C(C)Oc2ccc(Oc3nc4ccc(Cl)cc4o3)cc2)c1 (stereo not drawn) [Compound 2]
[3]; 0.004 kg/ha
  degree of damage to the plants, SORBI: 40%
[3]; 0.016 kg/ha
  degree of damage to the plants, SORBI: 100%
[3]; 0.063 kg/ha
  degree of damage to the plants, SORBI: 100%
[3]; 1 kg/ha
  degree of damage to the plants, SORBI: 100%
[3]; 025 kg/ha
  degree of damage to the plants, SORBI: 100%
[4]; 0.004 kg/ha
  degree of damage to the plants, DIGSA: 95%
[4]; 0.016 kg/ha
  degree of damage to the plants, DIGSA: 100%
[4]; 0.063 kg/ha
  degree of damage to the plants, DIGSA: 100%
[4]; 1 kg/ha
  degree of damage to the plants, DIGSA: 100%
[4]; 025 kg/ha
  degree of damage to the plants, DIGSA: 100%
[1]; 0.004 kg/ha
  degree of damage to the plants, ECHCG: 90%
[1]; 0.016 kg/ha
  degree of damage to the plants, ECHCG: 100%
[1]; 0.063 kg/ha
  degree of damage to the plants, ECHCG: 100%
[1]; 1 kg/ha
  degree of damage to the plants, ECHCG: 100%
[1]; 15 g/ha
  degree of damage to the plants, ECHCG: 8%
[1]; 025 kg/ha
  degree of damage to the plants, ECHCG: 100%
[1]; 30 g/ha
  degree of damage to the plants, ECHCG: 100%
[1]; 60 g/ha
  degree of damage to the plants, ECHCG: 100%
[1]; 125 g/ha
  degree of damage to the plants, ECHCG: 100%
[1]; 250 g/ha
  degree of damage to the plants, ECHCG: 100%
[1]; 500 g/ha
  degree of damage to the plants, ECHCG: 100%
[1]; 1000 g/ha
  degree of damage to the plants, ECHCG: 100%
[5]; 0.004 kg/ha
  degree of damage to the plants, GLXMA: 0%
[5]; 0.016 kg/ha
  degree of damage to the plants, GLXMA: 0%
[5]; 0.063 kg/ha
  degree of damage to the plants, GLXMA: 0%
[5]; 1 kg/ha
  degree of damage to the plants, GLXMA: 0%
[5]; 025 kg/ha
  degree of damage to the plants, GLXMA: 0%
[6]; 0.004 kg/ha
  degree of damage to the plants, GOSHI: 0%
[6]; 0.016 kg/ha
  degree of damage to the plants, GOSHI: 0%
[6]; 0.063 kg/ha
  degree of damage to the plants, GOSHI: 0%
[6]; 1 kg/ha
  degree of damage to the plants, GOSHI: 0%
[6]; 025 kg/ha
  degree of damage to the plants, GOSHI: 0%
[2]; 0.004 kg/ha
  degree of damage to the plants, ORYSA: 0%
[2]; 0.016 kg/ha
  degree of damage to the plants, ORYSA: 0%
[2]; 0.063 kg/ha
  degree of damage to the plants, ORYSA: 0%
[2]; 1 kg/ha
  degree of damage to the plants, ORYSA: 40%
[2]; 15 g/ha
  degree of damage to the plants, ORYSA: 0%
[2]; 025 kg/ha
  degree of damage to the plants, ORYSA: 40%
[2]; 30 g/ha
  degree of damage to the plants, ORYSA: 0%
[2]; 60 g/ha
  degree of damage to the plants, ORYSA: 0%
[2]; 125 g/ha
  degree of damage to the plants, ORYSA: 0%
[2]; 250 g/ha
  degree of damage to the plants, ORYSA: 15%
[2]; 500 g/ha
  degree of damage to the plants, ORYSA: 35%
[2]; 1000 g/ha
  degree of damage to the plants, ORYSA: 45%
[7]; 0.004 kg/ha
  degree of damage to the plants, PANDI: 95%
[7]; 0.016 kg/ha
  degree of damage to the plants, PANDI: 100%
[7]; 0.063 kg/ha
  degree of damage to the plants, PANDI: 100%
[7]; 1 kg/ha
  degree of damage to the plants, PANDI: 100%
[7]; 025 kg/ha
  degree of damage to the plants, PANDI: 100%
[8]; 0.004 kg/ha
  degree of damage to the plants, TRZAW: 0%
[8]; 0.016 kg/ha
  degree of damage to the plants, TRZAW: 0%
[8]; 0.063 kg/ha
  degree of damage to the plants, TRZAW: 0%
[8]; 1 kg/ha
  degree of damage to the plants, TRZAW: 40%
[8]; 025 kg/ha
  degree of damage to the plants, TRZAW: 20%
[9]; 0.004 kg/ha
  degree of damage to the plants, ZEMAX: 0%
[9]; 0.016 kg/ha
  degree of damage to the plants, ZEMAX: 0%
[9]; 0.063 kg/ha
  degree of damage to the plants, ZEMAX: 20%
[9]; 1 kg/ha
  degree of damage to the plants, ZEMAX: 100%
[9]; 025 kg/ha
  degree of damage to the plants, ZEMAX: 100%

## CCOC(=O)c1cccc(N(C)C(=O)C(C)Oc2ccc(Oc3nc4ccc(Cl)cc4o3)cc2)c1 (stereo not drawn) [Compound 3]
[1]; 15 g/ha
  degree of damage to the plants, ECHCG: 0%
[1]; 30 g/ha
  degree of damage to the plants, ECHCG: 0%
[1]; 60 g/ha
  degree of damage to the plants, ECHCG: 20%
[1]; 125 g/ha
  degree of damage to the plants, ECHCG: 90%
[1]; 250 g/ha
  degree of damage to the plants, ECHCG: 100%
[1]; 500 g/ha
  degree of damage to the plants, ECHCG: 100%
[1]; 1000 g/ha
  degree of damage to the plants, ECHCG: 100%
[2]; 15 g/ha
  degree of damage to the plants, ORYSA: 0%
[2]; 30 g/ha
  degree of damage to the plants, ORYSA: 0%
[2]; 60 g/ha
  degree of damage to the plants, ORYSA: 0%
[2]; 125 g/ha
  degree of damage to the plants, ORYSA: 0%
[2]; 250 g/ha
  degree of damage to the plants, ORYSA: 0%
[2]; 500 g/ha
  degree of damage to the plants, ORYSA: 0%
[2]; 1000 g/ha
  degree of damage to the plants, ORYSA: 0%

## COC(=O)c1ccc(NC(=O)C(C)Oc2ccc(Oc3nc4ccc(Cl)cc4o3)cc2)cc1 (stereo not drawn) [Compound 4]
[3]; 0.025 kg/ha
  degree of damage to the plants, SORBI: 70%
[3]; 0.1 kg/ha
  degree of damage to the plants, SORBI: 100%
[4]; 0.025 kg/ha
  degree of damage to the plants, DIGSA: 100%
[4]; 0.1 kg/ha
  degree of damage to the plants, DIGSA: 100%
[1]; 0.025 kg/ha
  degree of damage to the plants, ECHCG: 100%
[1]; 0.1 kg/ha
  degree of damage to the plants, ECHCG: 100%
[5]; 0.025 kg/ha
  degree of damage to the plants, GLXMA: 0%
[5]; 0.1 kg/ha
  degree of damage to the plants, GLXMA: 0%
[6]; 0.025 kg/ha
  degree of damage to the plants, GOSHI: 0%
[6]; 0.1 kg/ha
  degree of damage to the plants, GOSHI: 0%
[2]; 0.025 kg/ha
  degree of damage to the plants, ORYSA: 0%
[2]; 0.1 kg/ha
  degree of damage to the plants, ORYSA: 30%
[7]; 0.025 kg/ha
  degree of damage to the plants, PANDI: 80%
[7]; 0.1 kg/ha
  degree of damage to the plants, PANDI: 100%
[8]; 0.025 kg/ha
  degree of damage to the plants, TRZAW: 0%
[8]; 0.1 kg/ha
  degree of damage to the plants, TRZAW: 0%
[9]; 0.025 kg/ha
  degree of damage to the plants, ZEAMX: 0%
[9]; 0.1 kg/ha
  degree of damage to the plants, ZEAMX: 0%

## CCOC(=O)c1ccc(NC(=O)C(C)Oc2ccc(Oc3nc4ccc(Cl)cc4o3)cc2)cc1 (stereo not drawn) [Compound 5]
[3]; 0.025 kg/ha
  degree of damage to the plants, SORBI: 95%
[3]; 0.1 kg/ha
  degree of damage to the plants, SORBI: 100%
[4]; 0.025 kg/ha
  degree of damage to the plants, DIGSA: 100%
[4]; 0.1 kg/ha
  degree of damage to the plants, DIGSA: 100%
[1]; 0.025 kg/ha
  degree of damage to the plants, ECHCG: 95%
[1]; 0.1 kg/ha
  degree of damage to the plants, ECHCG: 100%
[5]; 0.025 kg/ha
  degree of damage to the plants, GLXMA: 0%
[5]; 0.1 kg/ha
  degree of damage to the plants, GLXMA: 20%
[6]; 0.025 kg/ha
  degree of damage to the plants, GOSHI: 0%
[6]; 0.1 kg/ha
  degree of damage to the plants, GOSHI: 0%
[2]; 0.025 kg/ha
  degree of damage to the plants, ORYSA: 0%
[2]; 0.1 kg/ha
  degree of damage to the plants, ORYSA: 40%
[7]; 0.025 kg/ha
  degree of damage to the plants, PANDI: 95%
[7]; 0.1 kg/ha
  degree of damage to the plants, PANDI: 100%
[8]; 0.025 kg/ha
  degree of damage to the plants, TRZAW: 0%
[8]; 0.1 kg/ha
  degree of damage to the plants, TRZAW: 20%
[9]; 0.025 kg/ha
  degree of damage to the plants, ZEAMX: 0%
[9]; 0.1 kg/ha
  degree of damage to the plants, ZEAMX: 30%
